What was measured:
Format in all cases: cell-based
[1] = system: intracellular calcium flux in Colo-205 cells; assay: Calcium flux assay (FLIPR Calcium 5 Assay Kit, FLIPR3); conditions: Homo sapiens, 0.6 h, calcium flux measured over 36 minutes, read-out: Colo 205 Calcium Flux assay 384w Boston Ca assay FLIPR3 Colo EC50
Description: Compounds described herein induced ER stress by causing intracellular calcium flux. Calcium flux was measured in Colo-205 cells using the FLIPR® Calcium 5 Assay Kit according to manufacturer's protocol (Molecular Devices, Cat. #R8186) on a FLIPR3 system (Molecular Devices). Calcium flux is measured over 36 minutes. The Colo-205 calcium flux assay data are summarized in Table 3: A<0.6 μM; 0.6 μM≤B<2.0 μM; 2.0 μM≤C<10.0 μM; D≥10.0 μM.

[2] = system: β-catenin-TCF-mediated reporter transcription activity in Colo 205 cells; assay: Colo 205 reporter assay (TCF/LEF promoter-driven firefly luciferase); conditions: Homo sapiens; Colo 205 TCF/LEF luciferase reporter, 5 hours after compound addition, 384 well; read-out: Colo205 IC50
[3] = system: XBP1(u)-luciferase splicing reporter in HepG2 hepatoma cells; assay: HepG2 XBP1 reporter assay (XBP1(u)-Luc); conditions: Homo sapiens, 6 hours after compound addition, Table 3, read-out: XBP1-luc HepG2 1 EC50

Structure (SMILES) | EC50 [1] | IC50 [2] | EC50 [3]
Cc1cc(N2CCCOC[C@@H]2c2ccc(N(C)C3COC3)cc2Cl)nc(N)n1 (single isomer, unassigned) [I-190] | < 600 nM | < 300 nM | < 600 nM
COCc1ccc(C2COCCCN2c2cc(C)nc(N)n2)c(Cl)c1 (racemic) [I-205, (+/−)-4-[3-[2-chloro-4-(methoxymethyl)phenyl]-1,4-oxazepan-4-yl]-6-methyl-pyrimidin-2-amine] | < 600 nM | 300 to 1000 nM | < 600 nM
Cc1cc(N2CCCOC[C@@H]2c2ccc(NC(=O)C3(O)CC3)cc2Cl)nc(N)n1 (single isomer, unassigned) [I-197] | < 600 nM | 300 to 1000 nM | < 600 nM
Cc1cc(N2CCCOCC2c2ccc(C(N)=O)cc2Cl)nc(N)n1 (stereo not drawn) [I-298] | < 600 nM | < 300 nM | 2000 to 5000 nM
COc1cc(Cl)ccc1C1CCCCCN1c1cc(C)nc(N)n1 (stereo not drawn) [I-20, 4-(2-(4-chloro-2-methoxyphenyl)azepan-1-yl)-6-methylpyrimidin-2-amine] | 600 to 2000 nM | 300 to 1000 nM | 600 to 2000 nM
COC1CN(c2ccc([C@H]3COCCCN3c3cc(C)nc(N)n3)c(Cl)c2)C1 [I-217, 4-[(3S)-3-[2-chloro-4-(3-methoxyazetidin-1-yl)phenyl]-1,4-oxazepan-4-yl]-6-methyl-pyrimidin-2-amine] | < 600 nM | < 300 nM | < 600 nM
CCS(=O)(=O)c1ccc([C@H]2COCCCN2c2cc(C)nc(N)n2)c(Cl)c1 [I-183, 4-(3-(2-chloro-4-(ethylsulfonyl)phenyl)-1,4-oxazepan-4-yl)-6-methylpyrimidin-2-amine] | < 600 nM | 300 to 1000 nM | < 600 nM
COCC(=O)Nc1ccc(C2COCCCN2c2cc(C)nc(N)n2)c(Cl)c1 (racemic) [I-192, (+/−)-N-[4-[4-(2-amino-6-methyl-pyrimidin-4-yl)-1,4-oxazepan-3-yl]-3-chloro-phenyl]-2-methoxy-acetamide] | < 600 nM | 300 to 1000 nM | < 600 nM
Cc1cc(N2CCCOCC2c2cc(-n3cccc3)ccc2Cl)nc(N)n1 (stereo not drawn) [I-300] | < 600 nM | 300 to 1000 nM | 600 to 2000 nM
Cc1cc(N2CCCOCC2c2cc(Br)ccc2Cl)nc(N)n1 (stereo not drawn) [I-295] | < 600 nM | 300 to 1000 nM | 600 to 2000 nM
Cc1cc(N2CCCOCC2c2ccc(N(C)C3COC3)cc2Cl)nc(N)n1 (racemic) [I-186, (+/−)-4-[3-[2-chloro-4-[methyl(oxetan-3-yl)amino]phenyl]-1,4-oxazepan-4-yl]-6-methyl-pyrimidin-2-amine] | < 600 nM | < 300 nM | < 600 nM
CC(C)c1cc(N2CCCCCC2c2ccccc2Cl)nc(N)n1 (racemic) [I-16, (+/−)-4-(2-(2-chlorophenyl)azepan-1-yl)-6-isopropylpyrimidin-2-amine] | 600 to 2000 nM | 300 to 1000 nM | 2000 to 5000 nM
CNC(=O)c1ccc([C@H]2COCCCN2c2cc(C)nc(N)n2)c(Cl)c1 [I-150, (S)-4-(4-(2-amino-6-methylpyrimidin-4-yl)-1,4-oxazepan-3-yl)-3-chloro-N-methylbenzamide] | < 600 nM | 300 to 1000 nM | 2000 to 5000 nM
Cc1cc(N2CCCOCC2c2ccc(S(=O)(=O)C3CCC3)cc2Cl)nc(N)n1 (stereo not drawn) [I-222, 4-(3-(2-chloro-4-(cyclobutylsulfonyl)phenyl)-1,4-oxazepan-4-yl)-6-methylpyrimidin-2-amine] | < 600 nM | 300 to 1000 nM | 600 to 2000 nM
COC1CCN(c2ccc([C@H]3COCCCN3c3cc(C)nc(N)n3)c(Cl)c2)C1 (stereo partly drawn) [I-218, 4-[(3S)-3-[2-chloro-4-(3-methoxypyrrolidin-1-yl)phenyl]-1,4-oxazepan-4-yl]-6-methyl-pyrimidin-2-amine] | < 600 nM | < 300 nM | < 600 nM
CCc1cc(N2CCCCCC2c2ccccc2Cl)nc(N)n1 (racemic) [I-17, (+/−)-4-(2-(2-chlorophenyl)azepan-1-yl)-6-ethylpyrimidin-2-amine] | 600 to 2000 nM | 300 to 1000 nM | < 600 nM
Cc1cc(N2CCCOCC2c2cc(N3CCCC3)ccc2Cl)nc(N)n1 (stereo not drawn) [I-304] | < 600 nM | 300 to 1000 nM | 600 to 2000 nM
Cc1cc(N2CCCOCC2c2cc(NC(=O)C3CCO3)ccc2Cl)nc(N)n1 (racemic) [I-184, (+/−)-N-[3-[4-(2-amino-6-methyl-pyrimidin-4-yl)-1,4-oxazepan-3-yl]-4-chloro-phenyl]oxetane-2-carboxamide] | < 600 nM | 300 to 1000 nM | 2000 to 5000 nM
Cc1cc(N2CCCOC[C@@H]2c2ccc(N3CCOCC3)cc2Cl)nc(N)n1 [I-216, 4-[(3S)-3-(2-chloro-4-morpholino-phenyl)-1,4-oxazepan-4-yl]-6-methyl-pyrimidin-2-amine] | < 600 nM | < 300 nM | < 600 nM

Structure (SMILES) | EC50 [1] | IC50 [2] | EC50 [3]
Cc1nc(N)nc2c1-c1c(NC3COC3)ccc(Cl)c1C1COCCCN21 (stereo not drawn) [I-309] | < 600 nM | < 300 nM | < 600 nM
CNc1ccc(Cl)c(C2COCCCN2c2cc(C)nc(N)n2)c1 (racemic) [I-175, (+/−)-4-[3-[2-chloro-5-(methylamino)phenyl]-1,4-oxazepan-4-yl]-6-methyl-pyrimidin-2-amine] | < 600 nM | < 300 nM | < 600 nM
CNC(=O)c1ccc(Cl)c([C@@H]2COCCCN2c2cc(C)nc(N)n2)c1 [I-181] | < 600 nM | < 300 nM | < 600 nM
COc1cc(F)ccc1C1CCCCCN1c1cc(C)nc(N)n1 (stereo not drawn) [I-22, 4-(2-(4-fluoro-2-methoxyphenyl)azepan-1-yl)-6-methylpyrimidin-2-amine] | < 600 nM | 300 to 1000 nM | 600 to 2000 nM
Cc1cc(N2CCCOC[C@H]2c2ccc(C(N)=O)cc2Cl)nc(N)n1 [I-188] | < 600 nM | < 300 nM | 600 to 2000 nM
Cc1cc(N2CCCOC[C@@H]2c2ccc(S(C)(=O)=O)cc2Cl)nc(N)n1 (single isomer, unassigned) [I-68] | < 600 nM | 300 to 1000 nM | < 600 nM
CCC(=O)Nc1ccc([C@H]2COCCCN2c2cc(C)nc(N)n2)c(Cl)c1 (single isomer, unassigned) [I-204] | < 600 nM | < 300 nM | < 600 nM
Cc1cc(N2CCCOC[C@@H]2c2ccc(N3CC4COCC4C3)cc2Cl)nc(N)n1 (stereo partly drawn) [I-220, 4-[(3S)-3-[4-(1,3,3a,4,6,6a-hexahydrofuro[3,4-c]pyrrol-5-yl)-2-chloro-phenyl]-1,4-oxazepan-4-yl]-6-methyl-pyrimidin-2-amine] | < 600 nM | < 300 nM | < 600 nM
CNc1ccc(Cl)c([C@H]2COCCCN2c2cc(C)nc(N)n2)c1 (single isomer, unassigned) [I-178, 4-[3-[2-chloro-5-(methylamino)phenyl]-1,4-oxazepan-4-yl]-6-methyl-pyrimidin-2-amine] | < 600 nM | < 300 nM | < 600 nM
Cc1cc(N2CCCOCC2c2ccc(N3CCCS3(=O)=O)cc2Cl)nc(N)n1 (racemic) [I-193, (+/−)-4-[3-[2-chloro-4-(1,1-dioxo-1,2-thiazolidin-2-yl)phenyl]-1,4-oxazepan-4-yl]-6-methyl-pyrimidin-2-amine] | < 600 nM | < 300 nM | < 600 nM
Cc1cc(N2CCCOCC2c2cc(N3CCOCC3)ccc2Cl)nc(N)n1 (racemic) [I-226, (+/−)-4-(3-(2-chloro-5-morpholinophenyl)-1,4-oxazepan-4-yl)-6-methylpyrimidin-2-amine] | < 600 nM | 300 to 1000 nM | < 600 nM
COc1ccc(OC)c([C@H]2CCCCCN2c2cc(C)nc(N)n2)c1 (single isomer, unassigned) [I-40] | < 600 nM | < 300 nM | < 600 nM
Cc1cc(N2CCCOCC2c2ccc(NC(=O)C3(O)CC3)cc2Cl)nc(N)n1 (stereo not drawn) [I-303] | < 600 nM | 300 to 1000 nM | < 600 nM
C=C(C)c1ccc(C2COCCCN2c2cc(C)nc(N)n2)c(Cl)c1 (stereo not drawn) [I-299] | < 600 nM | 300 to 1000 nM | 600 to 2000 nM
Cc1cc(N2CCCOC[C@H]2c2ccc(NS(C)(=O)=O)cc2Cl)nc(N)n1 (single isomer, unassigned) [I-179, N-[4-[4-(2-amino-6-methyl-pyrimidin-4-yl)-1,4-oxazepan-3-yl]-3-chloro-phenyl]methanesulfonamide] | < 600 nM | < 300 nM | < 600 nM
CC(=O)Nc1ccc(Cl)c([C@@H]2COCCCN2c2cc(C)nc(N)n2)c1 [I-92] | < 600 nM | < 300 nM | < 600 nM
CCNC(=O)c1ccc(Cl)c(C2COCCCN2c2cc(C)nc(N)n2)c1 (racemic) [I-173, (+/−)-3-[4-(2-amino-6-methyl-pyrimidin-4-yl)-1,4-oxazepan-3-yl]-4-chloro-N-ethyl-benzamide] | < 600 nM | 300 to 1000 nM | 600 to 2000 nM
CCNC(=O)c1ccc(C2COCCCN2c2cc(C)nc(N)n2)c(Cl)c1 (racemic) [I-171, (+/−)-4-[4-(2-amino-6-methyl-pyrimidin-4-yl)-1,4-oxazepan-3-yl]-3-chloro-N-ethyl-benzamide] | < 600 nM | 1000 to 5000 nM | 600 to 2000 nM
Cc1cc(N2CCCOC[C@@H]2c2ccc(P(C)(C)=O)cc2Cl)nc(N)n1 [I-214, 4-[3-(2-chloro-4-dimethylphosphoryl-phenyl)-1,4-oxazepan-4-yl]-6-methyl-pyrimidin-2-amine] | < 600 nM | 300 to 1000 nM | 2000 to 5000 nM
